From ChEMBL document CHEMBL1201862, “PubChem BioAssay data set” (2004)
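48-hour exposure; five concentrations; linearly interpolated endpoints. At the GI50, growth is halved.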 Active and inactive are the calls of the source. No stated cut-off is given here; in the data, active = GI50 up to about 1.1 µM and inactive = higher.

What was measured:
Assay in all cases: growth of human tumour cells (NCI), 48 h
NCI-H23 = tested on: NCI-H23
SK-MEL-28 = tested on: SK-MEL-28
OVCAR-3 = tested on: OVCAR-3
SK-MEL-5 = tested on: SK-MEL-5
KM12 = tested on: KM12
ACHN = tested on: ACHN
SW-620 = tested on: SW-620
HT-29 = tested on: HT-29
A498 = tested on: A498
SK-OV-3 = tested on: SK-OV-3
UACC-257 = tested on: UACC-257
HCC 2998 = tested on: HCC 2998
786-0 = tested on: 786-0
SNB-75 = tested on: SNB-75
TK-10 = tested on: TK-10
SNB-19 = tested on: SNB-19
MOLT-4 = tested on: MOLT-4
RPMI-8226 = tested on: RPMI-8226
CCRF-CEM = tested on: CCRF-CEM

SMILES | GI50 (NCI-H23) | GI50 (SK-MEL-28) | GI50 (OVCAR-3) | GI50 (SK-MEL-5) | GI50 (KM12) | GI50 (ACHN) | GI50 (SW-620) | GI50 (HT-29) | GI50 (A498) | GI50 (SK-OV-3) | GI50 (UACC-257) | GI50 (HCC 2998) | GI50 (786-0) | GI50 (SNB-75) | GI50 (TK-10) | GI50 (SNB-19) | GI50 (MOLT-4) | GI50 (RPMI-8226) | GI50 (CCRF-CEM)
CC(C)(C)C1=C(Br)C(Br)(C(C)(C)C)OP1(=O)c1ccccc1 (stereo not drawn) | > 100 µM (inactive) | > 100 µM (inactive) | > 100 µM (inactive) | > 100 µM (inactive) | > 100 µM (inactive) | > 100 µM (inactive) | > 100 µM (inactive) | > 100 µM (inactive) | > 100 µM (inactive) | > 100 µM (inactive) | > 100 µM (inactive) | > 100 µM (inactive) | > 100 µM (inactive) | > 100 µM (inactive) | > 100 µM (inactive) | > 100 µM (inactive) | – | – | –
COc1cc(C(C)O)c[n+](CCc2c[nH]c3ccccc23)c1 (stereo not drawn) | > 100 µM (inactive) | – | 66.5 µM (inactive) | > 100 µM (inactive) | > 100 µM (inactive) | > 100 µM (inactive) | > 100 µM (inactive) | 58.6 µM (inactive) | > 100 µM (inactive) | – | > 100 µM (inactive) | > 100 µM (inactive) | > 100 µM (inactive) | 89.9 µM (inactive) | > 100 µM (inactive) | > 100 µM (inactive) | > 100 µM (inactive) | > 100 µM (inactive) | > 100 µM (inactive)
O/N=C1\CSc2ccccc2C1 | > 100 µM (inactive) | > 100 µM (inactive) | > 100 µM (inactive) | > 100 µM (inactive) | > 100 µM (inactive) | > 100 µM (inactive) | > 100 µM (inactive) | > 100 µM (inactive) | 51.6 µM (inactive) | > 100 µM (inactive) | > 100 µM (inactive) | > 100 µM (inactive) | > 100 µM (inactive) | – | > 100 µM (inactive) | > 100 µM (inactive) | > 100 µM (inactive) | > 100 µM (inactive) | > 100 µM (inactive)
CC1C[C@]2(C)C(=O)N(c3ccccc3)C(=N)[C@@H]2N(C)c2ccccc21 (stereo partly drawn) | > 100 µM (inactive) | > 100 µM (inactive) | 70.1 µM (inactive) | > 100 µM (inactive) | > 100 µM (inactive) | > 100 µM (inactive) | > 100 µM (inactive) | > 100 µM (inactive) | > 100 µM (inactive) | – | > 100 µM (inactive) | > 100 µM (inactive) | > 100 µM (inactive) | 79.3 µM (inactive) | > 100 µM (inactive) | > 100 µM (inactive) | > 100 µM (inactive) | > 100 µM (inactive) | > 100 µM (inactive)
Cn1c(=O)c(C(=O)NC(=O)OCc2ccccc2)cn(CCSCCOC(=O)NCCCCCCNC(=O)OCCSCCn2cc(C(=O)NC(=O)OCc3ccccc3)c(=O)n(C)c2=O)c1=O | > 100 µM (inactive) | > 100 µM (inactive) | – | > 100 µM (inactive) | – | > 100 µM (inactive) | > 100 µM (inactive) | – | > 100 µM (inactive) | – | – | > 100 µM (inactive) | 83.9 µM (inactive) | 17.8 µM (inactive) | > 100 µM (inactive) | 41.2 µM (inactive) | > 100 µM (inactive) | > 100 µM (inactive) | > 100 µM (inactive)
CC(=O)/C(=C\c1ccccc1O)C(=O)Nc1ccccc1C | 17.7 µM (inactive) | 24.3 µM (inactive) | 25.7 µM (inactive) | 13.5 µM (inactive) | 17.2 µM (inactive) | 17.5 µM (inactive) | 20.7 µM (inactive) | 16.9 µM (inactive) | – | 51.9 µM (inactive) | 31.9 µM (inactive) | 15.7 µM (inactive) | 15.4 µM (inactive) | – | > 10 µM (inactive) | 20.7 µM (inactive) | 9.84 µM (inactive) | 15 µM (inactive) | 14.3 µM (inactive)
CSc1ncnc2c1ncn2CCC#N | > 100 µM (inactive) | > 100 µM (inactive) | > 100 µM (inactive) | > 100 µM (inactive) | > 100 µM (inactive) | > 100 µM (inactive) | > 100 µM (inactive) | > 100 µM (inactive) | > 100 µM (inactive) | > 100 µM (inactive) | > 100 µM (inactive) | – | > 100 µM (inactive) | > 100 µM (inactive) | > 100 µM (inactive) | > 100 µM (inactive) | > 100 µM (inactive) | > 100 µM (inactive) | > 100 µM (inactive)
COc1cc(/C=C(\NC(=O)c2ccccc2)c2nc3ccc4c(c3[nH]2)C(=O)c2ccccc2C4=O)cc(OC)c1OC | 55.6 µM (inactive) | 77.6 µM (inactive) | 38.1 µM (inactive) | 35 µM (inactive) | 8.05 µM (inactive) | – | 38.3 µM (inactive) | > 100 µM (inactive) | 13.1 µM (inactive) | 18.6 µM (inactive) | > 100 µM (inactive) | > 100 µM (inactive) | 28.2 µM (inactive) | 22.9 µM (inactive) | 29.2 µM (inactive) | 99.1 µM (inactive) | 2.52 µM (inactive) | 2.92 µM (inactive) | 0.687 µM (active)
OC1CCCCCCCCCCC1SCCCCl (stereo not drawn) | > 100 µM (inactive) | > 100 µM (inactive) | > 100 µM (inactive) | > 100 µM (inactive) | > 100 µM (inactive) | > 100 µM (inactive) | > 100 µM (inactive) | > 100 µM (inactive) | > 100 µM (inactive) | > 100 µM (inactive) | > 100 µM (inactive) | > 100 µM (inactive) | > 100 µM (inactive) | – | > 100 µM (inactive) | > 100 µM (inactive) | > 100 µM (inactive) | > 100 µM (inactive) | –
O=C(NO)c1ccc([N+](=O)[O-])cc1 | 36.6 µM (inactive) | 23.4 µM (inactive) | 44.7 µM (inactive) | 70.3 µM (inactive) | 64.9 µM (inactive) | – | 50.8 µM (inactive) | 48 µM (inactive) | 21.9 µM (inactive) | > 100 µM (inactive) | 28.6 µM (inactive) | 37.8 µM (inactive) | > 100 µM (inactive) | 23.9 µM (inactive) | 37.3 µM (inactive) | 46.2 µM (inactive) | 25.8 µM (inactive) | 27.2 µM (inactive) | 26 µM (inactive)
COc1ccc(/C=C2\C(=O)N(C(=O)c3ccc(NC(C)=O)cc3)N=C2C)cc1 | > 100 µM (inactive) | > 100 µM (inactive) | > 100 µM (inactive) | > 100 µM (inactive) | > 100 µM (inactive) | > 100 µM (inactive) | > 100 µM (inactive) | > 100 µM (inactive) | – | – | > 100 µM (inactive) | > 100 µM (inactive) | > 100 µM (inactive) | > 100 µM (inactive) | > 100 µM (inactive) | > 100 µM (inactive) | > 100 µM (inactive) | > 100 µM (inactive) | > 100 µM (inactive)
CCSc1[nH]c(NC(=S)NC(=O)c2ccccc2Cl)c(C(N)=O)c1C(N)=O | > 10 µM (inactive) | > 10 µM (inactive) | – | > 10 µM (inactive) | > 10 µM (inactive) | – | > 10 µM (inactive) | > 10 µM (inactive) | – | > 10 µM (inactive) | > 10 µM (inactive) | > 10 µM (inactive) | > 10 µM (inactive) | > 10 µM (inactive) | > 10 µM (inactive) | – | > 10 µM (inactive) | > 10 µM (inactive) | > 10 µM (inactive)
Cn1nc(-c2ccccc2)c2c(/C=C/c3ccc(Cl)cc3)onc2c1=O | > 100 µM (inactive) | 51.3 µM (inactive) | – | > 100 µM (inactive) | – | 8.57 µM (inactive) | 28.7 µM (inactive) | 34.4 µM (inactive) | – | > 10 µM (inactive) | – | – | 7.6 µM (inactive) | – | 33 µM (inactive) | 41.5 µM (inactive) | > 100 µM (inactive) | 31.8 µM (inactive) | 27.7 µM (inactive)
C/C(=N\NC(=O)CC(=O)N(C(=O)c1ccc(Cl)cc1)c1ccc(C)cc1)c1ccccc1O | > 100 µM (inactive) | 61.8 µM (inactive) | 14 µM (inactive) | > 100 µM (inactive) | 9.68 µM (inactive) | 45.6 µM (inactive) | > 100 µM (inactive) | 48.1 µM (inactive) | 73.6 µM (inactive) | > 100 µM (inactive) | > 100 µM (inactive) | – | 13.4 µM (inactive) | 18.2 µM (inactive) | 17.6 µM (inactive) | 59.4 µM (inactive) | 5.79 µM (inactive) | > 100 µM (inactive) | 5.45 µM (inactive)
CC1=NN(C(=O)Cc2ccccc2)C(=O)/C1=C\c1cccc(O)c1 | > 100 µM (inactive) | > 100 µM (inactive) | > 100 µM (inactive) | > 100 µM (inactive) | > 100 µM (inactive) | > 100 µM (inactive) | > 100 µM (inactive) | > 100 µM (inactive) | – | – | > 100 µM (inactive) | > 100 µM (inactive) | > 100 µM (inactive) | > 100 µM (inactive) | > 100 µM (inactive) | > 100 µM (inactive) | > 100 µM (inactive) | > 100 µM (inactive) | > 100 µM (inactive)
CN(C)Cc1[nH]c2ccccc2c1C(=O)c1ccccc1 | > 100 µM (inactive) | > 100 µM (inactive) | > 100 µM (inactive) | 58.1 µM (inactive) | > 100 µM (inactive) | > 100 µM (inactive) | > 100 µM (inactive) | > 100 µM (inactive) | – | – | > 100 µM (inactive) | 99.1 µM (inactive) | > 100 µM (inactive) | 21.9 µM (inactive) | > 100 µM (inactive) | > 100 µM (inactive) | > 100 µM (inactive) | 66.2 µM (inactive) | > 100 µM (inactive)
